The experiment concerns HBsAg in HepG2.2.15 cells. As to the kind of experiment: HBsAg assay: inhibition of HBsAg in HepG2.2.15 cells (chemiluminescence immunoassay of supernatant). The format is cell-based, hepatitis B virus. The following applies: Hepatitis B virus, HepG2.2.15, 144 h, read-out: sAg EC50, HepG2.2.15 cells, supernatant collected at day 6 after exposure, HBsAg CLIA. The gist of the method: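 HepG2.2.15 cells treated with serially diluted compounds (0.5% DMSO), medium and compound refreshed after 2-3 days; supernatant HBsAg measured by chemiluminescence immunoassay at day 6. EC50 from dose-response curves; viability assessed in parallel by CellTiter-Glo.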
Take `CCC1c2c(OC)ccc(F)c2CCN1c1ccnc(-c2ncccn2)n1` (centres unmarked) [Example 42, 1-Ethyl-5-fluoro-8-methoxy-2-(2-pyrimidin-2-ylpyrimidin-4-yl)-3,4-dihydro-1H-isoquinoline]: the EC50 – broadly, the concentration giving half of the maximal effect – came to 62 nM. Consider `CCC1c2ccc(F)c(OC)c2CCN1c1ccnc(-c2ncccn2)n1` (centres unmarked) [Example 46, 1-Ethyl-6-fluoro-5-methoxy-2-(2-pyrimidin-2-ylpyrimidin-4-yl)-3,4-dihydro-1H-isoquinoline], for which the EC50 amounted to 130 nM. For `CCC1c2cc(OC)c(F)c(F)c2CCN1c1ccnc(-c2ncccn2)n1` (centres unmarked) [Example 47, 1-Ethyl-5,6-difluoro-7-methoxy-2-(2-pyrimidin-2-ylpyrimidin-4-yl)-3,4-dihydro-1H-isoquinoline], the concentration for a half-maximal effect (EC50) was determined as 480 nM. In the case of `CCC1c2cc(F)c(F)cc2CN1c1ccnc(-c2ncccn2)n1` (centres unmarked) [Example 48, 2-([2,2′-Bipyrimidin]-4-yl)-1-ethyl-5,6-difluoroisoindoline] it was 92 nM; in that of `CCC1c2cc(F)c(F)cc2CN1c1nc(-c2ncccn2)ncc1F` (centres unmarked) [Example 51, 1-Ethyl-5,6-difluoro-2-(5-fluoro-[2,2′-bipyrimidin]-4-yl)isoindoline], 27 nM; in that of `CCC1c2cc(F)c(F)cc2CN1c1nc(-c2ncccn2)ncc1C` (centres unmarked) [Example 52, 1-Ethyl-5,6-difluoro-2-(5-methyl-[2,2′-bipyrimidin]-4-yl)isoindoline], 43 nM. `CCC1c2cc(F)c(F)cc2CN1c1nc(-c2ncccn2)ncc1Cl` (centres unmarked) [Example 53, 2-(5-Chloro-[2,2′-bipyrimidin]-4-yl)-1-ethyl-5,6-difluoroisoindoline]: the concentration for a half-maximal effect (EC50) stood at 30 nM. With `CCC1c2cc(F)c(F)cc2CN1c1nc(-c2ncccn2)ncc1C1CC1` (centres unmarked) [Example 54, 2-(5-Cyclopropyl-[2,2′-bipyrimidin]-4-yl)-1-ethyl-5,6-difluoroisoindoline], the EC50 came to 220 nM. Turning to `CCC1c2cc(OC)c(OC)cc2CN1c1ccnc(-c2ncccn2)n1` (centres unmarked) [Example 55, 2-([2,2′-Bipyrimidin]-4-yl)-1-ethyl-5,6-dimethoxyisoindoline], the EC50 came to 24 nM. `CCC1c2cc(OC)c(OC)cc2CN1c1nc(-c2ncccn2)ncc1C` (centres unmarked) [Example 58, 1-Ethyl-5,6-dimethoxy-2-(5-methyl-[2,2′-bipyrimidin]-4-yl)isoindoline]: the EC50 was 2 nM. Turning to `CCC1c2cc(OC)c(OC)cc2CN1c1nc(-c2ncccn2)ncc1NC` (centres unmarked) [Example 59, 4-(1-Ethyl-5,6-dimethoxyisoindolin-2-yl)-N-methyl-[2,2′-bipyrimidin]-5-amine], the concentration for a half-maximal effect (EC50) is 130 nM. Turning to `CCC1c2cc(OC)c(OC)cc2CN1c1nc(-c2ncccn2)ncc1Cl` (centres unmarked) [Example 60, 2-(5-Chloro-[2,2′-bipyrimidin]-4-yl)-1-ethyl-5,6-dimethoxyisoindoline], the EC50 turned out to be 3 nM. For the compound `CCC1c2cc(OC)c(OC)cc2CN1c1nc(-c2ncccn2)ncc1C1CC1` (centres unmarked) [Example 61, 2-(5-Cyclopropyl-[2,2′-bipyrimidin]-4-yl)-1-ethyl-5,6-dimethoxyisoindoline], the half-maximal effective concentration (EC50) was determined as 14 nM.

On to `CCC1c2cc(OC)c(OC)cc2CN1c1nc(-c2ncccn2)ncc1C(C)C` (centres unmarked) [Example 62, 1-Ethyl-2-(5-isopropyl-[2,2′-bipyrimidin]-4-yl)-5,6-dimethoxyisoindoline], for which the concentration giving a half-maximal response (EC50) came out at 1000 nM. Regarding `CCC1c2cc(F)c(OC)cc2CN1c1ccnc(-c2ncccn2)n1` (centres unmarked) [Example 63, 2-([2,2′-Bipyrimidin]-4-yl)-1-ethyl-6-fluoro-5-methoxyisoindoline], the EC50 worked out at 21 nM. On to `CCC1c2cc(F)c(OC)cc2CN1c1nc(-c2ncccn2)ncc1F` (centres unmarked) [Example 70, 1-Ethyl-6-fluoro-2-(5-fluoro-[2,2′-bipyrimidin]-4-yl)-5-methoxyisoindoline], for which the EC50 was 5 nM. Consider `CCC1c2cc(F)c(O)cc2CN1c1nc(-c2ncccn2)ncc1F` (centres unmarked) [Example 75, 1-Ethyl-6-fluoro-2-(5-fluoro-[2,2′-bipyrimidin]-4-yl)isoindolin-5-ol], for which the EC50 came to 700 nM. For the compound `CCC1c2cc(OC)c(F)cc2CN1c1ccnc(-c2ncccn2)n1` (centres unmarked) [Example 76, 2-([2,2′-Bipyrimidin]-4-yl)-1-ethyl-5-fluoro-6-methoxyisoindoline], the EC50 came out at 120 nM. For `c1cnc(-c2nccc(N3CC4CCC3c3ccccc34)n2)nc1` (centres unmarked) [Example 79, 10-([2,2′-Bipyrimidin]-4-yl)-1,2,3,4-tetrahydro-1,4-(epiminomethano)naphthalene], the EC50 amounted to 6000 nM. Regarding `Fc1cnc(-c2ncccn2)nc1N1CC2CCC1c1ccccc12` (centres unmarked) [Example 80, 10-(5-Fluoro-[2,2′-bipyrimidin]-4-yl)-1,2,3,4-tetrahydro-1,4-(epiminomethano)naphthalene], the concentration for a half-maximal effect (EC50) amounted to 700 nM. Consider `Cc1cnc(-c2ncccn2)nc1N1CC2CCC1c1ccccc12` (centres unmarked) [Example 81, 10-(5-Methyl-[2,2′-bipyrimidin]-4-yl)-1,2,3,4-tetrahydro-1,4-(epiminomethano)naphthalene], for which the half-maximal effective concentration (EC50) is 280 nM. The same measure for `c1cnc(-c2nccc(N3C4CCC3c3ccccc34)n2)nc1` [Example 82, 9-([2,2′-Bipyrimidin]-4-yl)-1,2,3,4-tetrahydro-1,4-epiminonaphthalene]: 9000 nM; for `c1cnc(-c2nccc(N3CC4CC3c3ccccc34)n2)nc1` (centres unmarked) [Example 83, 2-([2,2′-Bipyrimidin]-4-yl)-1,2,3,4-tetrahydro-1,4-methanoisoquinoline]: 5000 nM. In the case of `COc1cc2c(cc1OC)C1CCC2N1c1cnc(-c2ncccn2)nc1` [Example 84, 9-([2,2′-Bipyrimidin]-5-yl)-6,7-dimethoxy-1,2,3,4-tetrahydro-1,4-epiminonaphthalene] it was 4000 nM; in that of `Cc1cnc(-c2ncccn2)nc1N1C2CCC1c1ccccc12` [Example 85, 9-(5-Methyl-[2,2′-bipyrimidin]-4-yl)-1,2,3,4-tetrahydro-1,4-epiminonaphthalene], 3000 nM; in that of `Fc1cnc(-c2ncccn2)nc1N1C2CCC1c1ccccc12` [Example 86, 9-(5-Fluoro-[2,2′-bipyrimidin]-4-yl)-1,2,3,4-tetrahydro-1,4-epiminonaphthalene], 2400 nM. Turning to `COc1cc2c(cc1OC)C1CCC2N1c1nc(-c2ncccn2)ncc1F` [Example 87, 9-(5-Fluoro-[2,2′-bipyrimidin]-4-yl)-6,7-dimethoxy-1,2,3,4-tetrahydro-1,4-epiminonaphthalene], the EC50 turned out to be 1000 nM. As to `COc1cc2c(cc1OC)C1CCC2N1c1nc(-c2ncccn2)ncc1C` [Example 88, 6,7-Dimethoxy-9-(5-methyl-[2,2′-bipyrimidin]-4-yl)-1,2,3,4-tetrahydro-1,4-epiminonaphthalene], the 50% effective concentration (EC50) was 2000 nM. As to `CCC1c2cc(OC)c(OC)cc2CN1c1nc(-c2ncccn2)nc2ccoc12` (centres unmarked) [Example 91, 4-(1-Ethyl-5,6-dimethoxyisoindolin-2-yl)-2-(pyrimidin-2-yl)furo[3,2-d]pyrimidine], the EC50 came out at 150 nM. Take `CCC1c2cc(OC)c(OC)cc2CN1c1nc(-c2ncccn2)nc2c1COC2` (centres unmarked) [Example 92, 4-(1-Ethyl-5,6-dimethoxyisoindolin-2-yl)-2-(pyrimidin-2-yl)-5,7-dihydrofuro[3,4-d]pyrimidine]: the EC50 is 180 nM.

As to `CCC1c2cc(OC)c(OC)cc2CN1c1nc(-c2ncccn2)nc2scnc12` (centres unmarked) [Example 93, 7-(1-Ethyl-5,6-dimethoxy-isoindolin-2-yl)-5-pyrimidin-2-yl-thiazolo[5,4-d]pyrimidine], the 50% effective concentration (EC50) is 200 nM. In the case of `CCC1c2cc(OC)c(OC)cc2CN1c1nc(-c2ncccn2)nc2c1CCC2` (centres unmarked) [Example 94, 4-(1-Ethyl-5,6-dimethoxy-isoindolin-2-yl)-2-pyrimidin-2-yl-6,7-dihydro-5H-cyclopenta[d]pyrimidine], the EC50 came to 350 nM. For the compound `CCC1c2cc(F)c(F)cc2CN1c1ccnc(C(=O)O)n1` (centres unmarked) [Example 95, 4-(1-Ethyl-5,6-difluoroisoindolin-2-yl)pyrimidine-2-carboxylic Acid], the concentration for a half-maximal effect (EC50) worked out at 2000 nM. Take `CCC1c2cc(F)c(OC)cc2CN1c1ccnc(C(=O)O)n1` (centres unmarked) [Example 96, 4-(1-Ethyl-6-fluoro-5-methoxyisoindolin-2-yl)pyrimidine-2-carboxylic Acid]: the concentration for a half-maximal effect (EC50) was 1200 nM.

As to `CCC1c2cc(OC)c(OC)cc2CN1c1cnc(C(=O)O)nc1` (centres unmarked) [Example 97, 5-(1-Ethyl-5,6-dimethoxyisoindolin-2-yl)pyrimidine-2-carboxylic Acid], the 50% effective concentration (EC50) came out at 5000 nM. The same measure for `CCC1c2cc(F)c(OC)cc2CN1c1cnc(C(=O)O)nc1` (centres unmarked) [Example 98, 5-(1-Ethyl-6-fluoro-5-methoxyisoindolin-2-yl)pyrimidine-2-carboxylic Acid]: 240 nM; for `CCC1c2cc(F)c(OC)cc2CN1c1cnc(C(=O)NS(C)(=O)=O)nc1` (centres unmarked) [Example 101, 5-(1-Ethyl-6-fluoro-5-methoxyisoindolin-2-yl)-N-(methylsulfonyl)pyrimidine-2-carboxamide]: 650 nM; for `CCC1c2cc(F)c(OC)cc2CN1c1ccnc(C(=O)NS(C)(=O)=O)n1` (centres unmarked) [Example 104, 4-(1-Ethyl-6-fluoro-5-methoxyisoindolin-2-yl)-N-(methylsulfonyl)pyrimidine-2-carboxamide]: 5000 nM. With `CCC1c2cc(F)c(OC)cc2CN1c1cnc(C(=O)Nc2nccn2C)nc1` (centres unmarked) [Example 105, 5-(1-Ethyl-6-fluoro-5-methoxyisoindolin-2-yl)-N-(1-methyl-1H-imidazol-2-yl)pyrimidine-2-carboxamide], the 50% effective concentration (EC50) was 6000 nM. Take `CCC1c2cc(F)c(OC)cc2CN1c1cnc(C(=O)Nc2ccccn2)nc1` (centres unmarked) [Example 106, 5-(1-Ethyl-6-fluoro-5-methoxyisoindolin-2-yl)-N-(pyridin-2-yl)pyrimidine-2-carboxamide]: the EC50 stood at 2000 nM. The same measure for `O=c1[nH]cccc1-c1nccc(N2CCc3cc(F)c(F)cc3C2)n1` [Example 111, 3-[4-(6,7-Difluoro-3,4-dihydro-1H-isoquinolin-2-yl)pyrimidin-2-yl]pyridin-2-ol]: 46000 nM.

The record behind these values is US20210251991A1, “SUBSTITUTED 2,2'-BIPYRIMIDINYL COMPOUNDS, ANALOGUES THEREOF, AND METHODS USING SAME” (priority 2018, published 2021).
